Test results: patent US8148347B2, “Inhibition of interaction of PSD93 and PSDS95 with nNOS and NMDA receptors” (The Johns Hopkins University, priority 2000, dated 2012)

What was measured:
Male Sprague-Dawley rats [1] = test: radiant heat tail-flick test, baseline and NMDA-induced thermal hyperalgesia; assay type: in vivo, rat; conditions: for percentage change of TF latency (baseline tail-flick latency): without NMDA, compared to the control group
Description: To examine whether PSD-95/SAP90 was required for thermal hyperalgesia triggered through NMDA receptor activation, we made an antisense oligonucletide (OND) corresponding to the PDZ domain nucleotides 241 to 258 (5′-[…]-3′; SEQ ID NO: 1) of rat PSD-95/SAP90 mRNA, as well as the sense OND and missense OND (5′-[…]-3′; SEQ ID NO: 2). All of the ONDs were compared to the Gene Bank database (GenBank accession number M96853) and found not to be complementary to any registered nucleotide sequences. The effects of antisense, sense and missense ONDs on baseline and NMDA-induced tail-flick latencies were assessed. […] To identify that NMDA-induced thermal hyperalgesia was produced specifically through NMDA receptor activation but not non-NMDA receptor activation, we observed the effects of a selective NMDA receptor antagonist, MK-801, and a selective non-NMDA receptor antagonist, DNQX, on NMDA-induced facilitation of the tail-flick reflex. […] In addition, motor weakness or dysfunction was not observed in locomotor tests (including placing reflex, grasping reflex and righting reflex) in any of the treated animals including the antisense groups (data not shown).
Animal preparation and behavioral testing. All experiments were carried out with the approval of the Animal Care Committee at the Johns Hopkins University and were consistent with the ethical guidelines of the National Institutes of Health and the International Association for the Study of Pain. Male Sprague-Dawley rats (250-300 g) were implanted with an intrathecal PE-10 catheter into the subarachnoid space at the rostral level of the spinal cord lumbar enlargement through an incision at the atlanto-occipital membrane according to the method as described.^25,27 One week or more later, the rats were injected intrathecally with saline or ONDs every 24 h for 4 days. On the fifth day, saline, NMDA, MK-801+NMDA or DNQX+NMDA was given intrathecally. Nociception was evaluated by the radiant heat tail-flick test. The doses and time point of maximal effect of NMDA used in the present study were determined based on a previous study.^24 The tail-flick apparatus (Model 33B Tail Flick Analgesy Meter, IITC Life Science, Woodland Hills, Calif., USA) generated a beam of radiant heat that was focused on the underside of the tail, 5 cm from the tip. A cut-off time latency of 13.5 s was used to avoid tissue damage to the tail. Nociception was assessed by the time required to induce tail-flick after applying radiant heat to the skin of the tail. The latency of reflexive removal of the tail from the heat was measured automatically to the nearest 0.01 s. Tail-flick latency was measured five times, and the basal latency was defined as the mean. Tail-flick data were expressed as percentage change calculated by the formula: (trial latency−baseline latency)/(baseline latency)×100%. Finally, PE-10 catheter position from each animal was confirmed when lumbar enlargement segments were removed for western blot analysis. PCR analysis of PSD-95/SAP90 in rat spinal cord. The cDNA sequences encoding portions of the PSD-95/SAP90 were amplified using the following synthetic OND primers: PSD1 (5′-[…]-3′; SEQ ID NO: 3) and PSD2 (5′-[…]-3′; SEQ ID NO: 4) for amplification of PSD-95/SAP90 codon positions 789-1525. RNA samples (1 μg) from rat spinal cord, brain and muscle were reverse transcribed to generate first-strand cDNA. The PCR reactions were performed for 25 cycles. Each cycle included 30 s at 94° C., 30 s at 55° C., and 30 s at 71° C. The PCR products were directly cloned into the TA cloning vector (Invitrogen Co., San Diego, Calif., USA) and verified by automatic DNA sequencing. Fusion protein construction and preparation. cDNA sequence encoding portion of PSD-95/SAP90 was amplified by PCR and subcloned in-frame into PGEX-2T (GIBCO, Rockville, Md., USA) via the BamHI and EcoRI restriction digest sites. […]

Male Sprague-Dawley rats [2] = test: measurement of isoflurane MAC (tail clamp); assay type: in vivo, rat; conditions: for MAC (isoflurane): mean ± SD
Description: The ODNs were dissolved in saline before administration. As described in the previous work,^49 the rats were injected intrathecally with saline (10 μl) (control), antisense ODNs (12.5, 25, 50 μg/10 μl), sense ODN (50 μg/10 μl) and missense ODN (50 μg/10 μl), respectively, followed by an injection of 10 μl of saline to flush the catheter, every 24 h for 4 days.
On the fifth day after saline or ODNs injection, each rat was placed in a clear plastic cone and anesthetized with 5% isoflurane in oxygen for three to five minutes. After tracheostomy, the trachea of each animal was intubated with a 16-gauge polyethylene catheter. The inspired isoflurane concentration was reduced to 2%, and the animals breathed spontaneously until cannulation of a carotid artery and a jugular vein with PE-50 tubing was accomplished. The isoflurane concentration was decreased further to 1.5%, and ventilation was controlled by a Harvard Animal Respirator (Harvard Apparatus, South Natick, Mass.) adjusted according to the measurement of arterial blood gases to maintain normal partial pressure of oxygen (PO2=91-94 mmHg), partial pressure of carbon dioxide (PCO2=33-41 mmHg) and pH (7.4-7.44). Electrocardiography and systolic and diastolic blood pressure were monitored using a Grass Polygraph (Astroumed Grass, Quincy, Mass.) and Gould Pressure Transducer (Gould, Cleveland, Ohio). Rectal temperature was maintained between 36.5 and 37.5° C. by use of a heating blanket and warming lights.
A PE-10 catheter was introduced through and beyond the endotracheal tube until obstruction to passage was met and then withdrawn 1 to 2 mm. For isoflurane MAC measurement, the PE-10 catheter was connected to a parameter airway gas monitor (Datex-Engstrom, Inc., Tewksbury, Mass.). After stabilizing about 30 minutes, MAC was measured according to the methods described previously^34 using a long hemostat (8-inch Rochester Dean Hemostatic Forceps) clamped to the first ratchet lock on the tail for 1 min. The tail was always stimulated proximal to a previous test site. Gross movement of the head, extremities, or body was taken as a positive test result, whereas grimacing, swallowing, chewing, or tail flick were considered negative results. The isoflurane concentration was reduced in decrements of 0.12 to 0.15% until the negative response became positive, with 12-15 min equilibration allowed after changes in concentration.^50,51 The MAC was considered to be the concentration midway between the highest concentration that permitted movement in response to the stimulus and the lowest concentration that prevented movement. Finally, intrathecal PE-10 catheter position from each animal was confirmed.
In some saline-treated rats, after initial baseline MAC determination, NMDA at the dose of 1.25 μg^38 or saline was injected intrathecally in a volume of 10 μl saline, followed by an injection of 10 μl saline to flush the catheter. Fresh NMDA solution was prepared for each experiment. […] At this isoflurane concentration, 10 min after the intrathecal injection of NMDA, the animals were tested again for reactivity to tail clamp. The concentration of isoflurane was increased, and response to tail clamp was checked every 12-15 min thereafter until a negative response was achieved. In some antisense ODN (50 μg)-treated rats, after initial MAC determination, NMDA or saline was also administered intrathecally. The MAC for isoflurane was again determined following the aforementioned procedures.

[3] = 50 μg/10 μl intrathecal every 24 h for 4 days + NMDA
[4] = 50 μg intrathecal every 24 h for 4 days

5′-AAGCCCTTGTTCCCATTT-3′ (DNA, backbone and methylation of C not given here; listed as Rattus rattus) [MS, missense OND control, reference compound]
NMDA-produced facilitation of the tail-flick reflex after pretreatment (attenuated or not) (Male Sprague-Dawley rats [1]; 50 μg/10 μl every 24 h for 4 days): not | ΔTF latency (%) (Male Sprague-Dawley rats [1]; [3]): −20.96% | percentage change of TF latency (baseline tail-flick latency) (Male Sprague-Dawley rats [1]): −2.05±1.57% | change of the value for isoflurane MAC compared to the control group (Male Sprague-Dawley rats [2]; 50 μg intrathecal): did not significantly change | MAC (isoflurane) (Male Sprague-Dawley rats [2]; [4]): 1.13 ± 0.15

5′-TGTGATCTCCTCATACTC-3′ (DNA, backbone and methylation of C not given here; listed as Rattus rattus) [antisense oligonucletide corresponding to the PDZ domain nucleotides 241 to 258 of rat PSD-95/SAP90 mRNA]
prevention of the NMDA-induced decrease of the tail-flick latency (Male Sprague-Dawley rats [1]; 25 μg intrathecal): 55% | NMDA-produced facilitation of the tail-flick reflex after pretreatment (Male Sprague-Dawley rats [1]; 25 μg/10 μl and 50 μg/10 μl every 24 h for 4 days): attenuated | ΔTF latency (%) (Male Sprague-Dawley rats [1]; 25 μg/10 μl intrathecal every 24 h for 4 days + NMDA): −11.65% | prevention of the NMDA-induced decrease of the tail-flick latency (Male Sprague-Dawley rats [1]; 50 μg intrathecal): 82% | ΔTF latency (%) (Male Sprague-Dawley rats [1]; [3]): −4.72% | percentage change of TF latency (baseline tail-flick latency) (Male Sprague-Dawley rats [1]): 0.44±1.95% | tail flick latency in response to NMDA stimulation after recovery (Male Sprague-Dawley rats [1]; recovery for an additional four days after treatment): returned to normal | decrease from isoflurane control MAC (Male Sprague-Dawley rats [2]; 12.5 μg): 1% | MAC (isoflurane) (Male Sprague-Dawley rats [2]; 12.5 μg intrathecal every 24 h for 4 days): 1.15 ± 0.18 | decrease from isoflurane control MAC (Male Sprague-Dawley rats [2]; 25 μg): 18% | MAC (isoflurane) (Male Sprague-Dawley rats [2]; 25 μg intrathecal every 24 h for 4 days): 0.98 ± 0.14 | decrease from isoflurane control MAC (Male Sprague-Dawley rats [2]; 50 μg): 44% | MAC (isoflurane) (Male Sprague-Dawley rats [2]; [4]): 0.72 ± 0.05 | increase in isoflurane MAC after NMDA compared to 50 μg antisense ODN alone (Male Sprague-Dawley rats [2]; pretreated with 50 μg antisense ODN, intrathecal NMDA 1.25 μg): did not result in a significant increase
